Measurements taken from patent US9643933B2, “Compounds useful as antibiotic tolerance inhibitors” (priority 2013, dated 2017).

Tested on: Pyocyanin
Test: Pyocyanin Inhibition Assay
Format: cell-based, P. aeruginosa, strain PA14
Details: Pseudomonas aeruginosa, PA14, 24 h, read-out: Pyocyanin Inhibition No. IC50 (μM)
Description: Test compounds are dissolved in DMSO at 10 mM and stored at −20° C. until needed. Seven test concentrations from 0.0032 micromolar to 31.6 micromolar are used for each compound.
P. aeruginosa, strain PA14, is inoculated into 5 mL of LB broth in a 15-mL sterile glass culture tube and incubated overnight at 37° C. under shaking (˜240 rpm). The overnight culture is then diluted in LB Broth to give an OD600=0.04 (T0 culture). Colony Forming Units (CFU)/mL of the overnight culture and T0 culture are determined by a series of 1:10 serial dilutions in sterile saline. 4×20 μL of each dilution is seeded on LB agar plates and incubated at 35±2° C. for 20 hours. CFU/mL is determined from the dilution that gives 2 to 50 colonies/20 μL.
For concentration response curve (CRC) experiments, internal standard, 2-((5-nitro-1H-indol-2-yl)thio)-N-(4-phenoxyphenyl)acetamide, a compound previously identified as an MvfR inhibitor (see Example 1 of US 2014-0066454 (WO 2012/116010)), and test compounds are serially diluted in DMSO to 200 times each final concentration (0.5% DMSO fmal), and 1 μL/well is dispensed in duplicate into 2 mL wells of a 96-well deep well plate. 200 μL/well of T0 culture are added to each internal standard/test compound well. Wells containing only T0 culture (200 200 μL/well) are used to determine pyocyanin control level and wells containing only LB broth (blank wells) are also included in the plate.
The plate is sealed and incubated at 37° C. under shaking (˜700 rpm) using a microtiter shaker for 24 hours. At the end of the incubation period, the plate is centrifuged at 4,000 g for 40 minutes at room temperature, 100 μL/well of the supernatant is transferred to a 96-microtiter PS flat-bottom plate, and absorbance at 690 nm is determined using SPECTROstar® Nano microplate reader. Pyocyanin concentration (M) is determined using the equation C=A690/(ε×d), where ε is the Pyocyanin extinction coefficient, at A690 nm ε is 4,310 M^−1 cm^−1 and d is the experimentally derived pathlength. The level of pyocyanin in the presence of test compound is expressed as percentage of inhibition with respect to the control. Curve fitting and IC50 determination were carried out using a four-parameter logistic model using GraphPad Prism v.5.

Structure (SMILES) | IC50 [µM]
O=C(CSc1nc2cc(C(=O)O)ccc2[nH]1)Nc1ccc(Cl)cc1 [Compound 97] | > 10
CS(=O)(=O)c1ccc2[nH]c(SCC(=O)Nc3ccc(Cl)cc3)nc2c1 [Compound 98] | > 10
NS(=O)(=O)c1ccc2[nH]c(SCC(=O)Nc3ccc(Cl)cc3)nc2c1 [Compound 99] | > 10
O=C(CSc1nc2ccncc2[nH]1)Nc1ccc(Cl)cc1 [Compound 100] | > 10
O=C(CSc1nc2cccnc2[nH]1)Nc1ccc(Cl)cc1 [Compound 101] | > 10
N#Cc1ccc(NC(=O)CSc2nc3cnccc3[nH]2)cc1 [Compound 102] | > 10
N#Cc1ccc(NC(=O)CSc2nc3ncccc3[nH]2)cc1 [Compound 103] | > 10
CS(=O)(=O)c1ccc2[nH]c(SCC(=O)Nc3ccc(C#N)cc3)nc2c1 [Compound 107] | > 10
N#Cc1ccc(NC(=O)CSc2nc3cc(S(N)(=O)=O)ccc3[nH]2)cc1 [Compound 108] | > 10
COC(=O)c1ccc2[nH]c(SCC(=O)Nc3ccc(Cl)cc3)nc2c1 [Compound 109] | > 10
O=C(CSc1nc2ccc(-c3ncccn3)cc2[nH]1)Nc1ccc(Cl)cc1 [Compound 114] | > 10
CNC(=O)c1ccc2[nH]c(SCC(=O)Nc3ccc(Cl)cc3)nc2c1 [Compound 115] | > 10
CN(C)C(=O)c1ccc2[nH]c(SCC(=O)Nc3ccc(Cl)cc3)nc2c1 [Compound 118] | > 10
CN(C)C(=O)c1ccc2[nH]c(SCC(=O)Nc3ccc(C#N)cc3)nc2c1 [Compound 119] | > 10
Cc1ccc(NC(=O)C(C)Sc2nc3ccc(Cl)cc3[nH]2)cc1 (stereo not drawn) [Compound 120] | > 10
Cc1cccc(NC(=O)CSc2nc3cccnc3[nH]2)c1 [Compound 121] | > 10
O=C(CSc1nc2cccnc2[nH]1)Nc1ccccc1 [Compound 122] | > 10
CC(=O)Nc1cccc(NC(=O)CSc2nc3cc(C)ccc3[nH]2)c1 [Compound 123] | > 10
CC(=O)c1ccc(NC(=O)CSc2nc3ccc(C)cc3[nH]2)cc1 [Compound 124] | > 10
O=C(CSc1nc2ccc(-c3ncco3)cc2[nH]1)Nc1ccc(Cl)cc1 [Compound 127] | > 10

Structure (SMILES) | IC50 [µM]
N#Cc1ccc(NC(=O)CSc2nc3ccc(-c4ncco4)cc3[nH]2)cc1 [Compound 128] | > 10
CNC(=O)c1ccc2[nH]c(SCC(=O)Nc3ccc(C#N)cc3)nc2c1 [Compound 129] | > 10
N#Cc1ccc(NC(=O)CSc2nc3cc(O)ccc3[nH]2)cc1 [Compound 130] | > 10
O=C(CSc1nc2cc(O)ccc2[nH]1)Nc1ccc(Cl)cc1 [Compound 131] | > 10
O=C(CSc1nc2ccncc2[nH]1)Nc1ccccc1F [Compound 132] | > 10
Cc1ccc(NC(=O)CSc2nc3cccnc3[nH]2)cc1 [Compound 133] | > 10
Cc1cc(Cl)ccc1NC(=O)CSc1nc2cc(C#N)ccc2[nH]1 [Compound 160, N-(4-chloro-2-methylphenyl)-2-((5-cyano-1H-benzo[d]imidazol-2-yl)thio)acetamide] | 1 to 10
COc1cc(Oc2cccnc2)ccc1NC(=O)CSc1nc2cc(Cl)ccc2[nH]1 [Compound 161, 2-((5-chloro-1H-benzo[d]imidazol-2-yl)thio)-N-(2-methoxy-4-(pyridin-3-yloxy)phenyl)acetamide] | < 0.1
O=C(CSc1nc2cc(Cl)ccc2[nH]1)Nc1ccc(Oc2cccnc2)cc1O [Compound 162, 2-((5-Chloro-1H-benzo[d]imidazol-2-yl)thio)-N-(2-hydroxy-4-(pyridin-3-yloxy)phenyl)acetamide] | < 0.1
Cc1cc(Oc2cccnc2)ccc1NC(=O)CSc1nc2cc(Cl)ccc2[nH]1 [Compound 163, 2-((5-Chloro-1H-benzo[d]imidazol-2-yl)thio)-N-(2-methyl-4-(pyridin-3-yloxy)phenyl)acetamide] | 0.1 to 1
COc1cc(Cl)cc2nc(SCC(=O)Nc3ccc(Oc4cccnc4)cc3)[nH]c12 [Compound 164, 2-((5-chloro-7-methoxy-1H-benzo[d]imidazol-2-yl)thio)-N-(4-(pyridin-3-yloxy)phenyl)acetamide] | < 0.1
O=C(CSc1nc2cc(Cl)ccc2[nH]1)Nc1ccc(Oc2cccnc2)cc1Cl [Compound 165, 2-((5-Chloro-1H-benzo[d]imidazol-2-yl)thio)-N-(2-chloro-4-(pyridin-3-yloxy)phenyl)acetamide] | < 0.1
COc1cc(Cl)cc2nc(SCC(=O)Nc3ccc(Cl)cc3)[nH]c12 [Compound 166, 2-((5-Chloro-7-methoxy-1H-benzo[d]imidazol-2-yl)thio)-N-(4-chlorophenyl)acetamide] | 0.1 to 1
N#Cc1ccc2[nH]c(SCC(=O)Nc3ccc(Cl)cc3Cl)nc2c1 [Compound 167, 2-((5-Cyano-1H-benzo[d]imidazol-2-yl)thio)-N-(2,4-dichlorophenyl)acetamide] | 0.1 to 1
Cc1cc(Oc2cccnc2)ccc1NC(=O)CSc1nc2cc(C#N)ccc2[nH]1 [Compound 168, 2-((5-Cyano-1H-benzo[d]imidazol-2-yl)thio)-N-(2-methyl-4-(pyridin-3-yloxy)phenyl)acetamide] | 0.1 to 1
COc1cc(Oc2cccnc2)ccc1NC(=O)CSc1nc2cc(C#N)ccc2[nH]1 [Compound 169, 2-((5-Cyano-1H-benzo[d]imidazol-2-yl)thio)-N-(2-methoxy-4-(pyridin-3-yloxy)phenyl)acetamide] | 0.1 to 1
N#Cc1ccc2[nH]c(SCC(=O)Nc3ccc(Oc4cccnc4)cc3Cl)nc2c1 [Compound 170, N-(2-chloro-4-(pyridin-3-yloxy)phenyl)-2-((5-cyano-1H-benzo[d]imidazol-2-yl)thio)acetamide] | < 0.1
CC(C)(O)c1cc(Cl)cc2nc(SCC(=O)Nc3ccc(Oc4cccnc4)cc3)[nH]c12 [Compound 171, 2-((5-chloro-7-(2-hydroxypropan-2-yl)-1H-benzo[d]imidazol-2-yl)thio)-N-(4-(pyridin-3-yloxy)phenyl)acetamide] | < 0.1
O=C(C[C@H](O)c1nc2ccc(Cl)cc2[nH]1)Nc1ccc(Oc2cccnc2)cc1 [Compound 172, (S)-3-(6-chloro-1H-benzo[d]imidazol-2-yl)-3-hydroxy-N-(4-(pyridin-3-yloxy)phenyl)propanamide] | 1 to 10
